Measurements taken from ChEMBL document CHEMBL4251553, “Synthesis, anticancer evaluation and pharmacokinetic study of novel 10-O-phenyl ethers of dihydroartemisinin” (Eur J Med Chem, 2017).

Tests used:
[1] = test system: MDA-MB-231; experiment: Antiproliferative activity against human MDA-MB-231 cells after 96 hrs by MTT assay; assay type: functional; conditions: MDA-MB-231, 96 h
[2] = test system: MCF7; experiment: Antiproliferative activity against human MCF7 cells after 96 hrs by MTT assay; assay type: functional; conditions: MCF7, 96 h
[3] = test system: NCI/ADR-RES; experiment: Antiproliferative activity against human MCF7/ADR cells after 96 hrs by MTT assay; assay type: functional
[4] = Selectivity ratio of GI50 for human MCF7 cells to GI50 for human MCF7/ADR cells; assay type: functional
[5] = test system: HL-60; experiment: Antiproliferative activity against human HL60 cells after 96 hrs by MTT assay; assay type: functional; conditions: HL-60, 96 h
[6] = test system: U-937; experiment: Antiproliferative activity against human U937 cells after 96 hrs by MTT assay; assay type: functional; conditions: U-937, 96 h
[7] = test system: K562; experiment: Antiproliferative activity against human K562 cells after 96 hrs by MTT assay; assay type: functional; conditions: K562, 96 h
[8] = test system: NB-4; experiment: Antiproliferative activity against human NB4 cells after 96 hrs by MTT assay; assay type: functional; conditions: NB-4, 96 h
[9] = test system: PC-3; experiment: Antiproliferative activity against human PC3 cells after 96 hrs by MTT assay; assay type: functional; conditions: PC-3, 96 h
[10] = test system: LNCaP; experiment: Antiproliferative activity against human LNCAP cells after 96 hrs by MTT assay; assay type: functional
[11] = Apparent terminal half life in Sprague-Dawley rat at 10 mg/kg, iv administered as single dose by LC-MS/MS analysis; assay type: ADME, organism-based; conditions: in vivo, read-out: betat1/2(app) (converted)
[12] = Cmax in Sprague-Dawley rat at 10 mg/kg, iv administered as single dose by LC-MS/MS analysis; assay type: ADME, organism-based; set-up: dose 10 mg/kg, route intravenous; conditions: in vivo
[13] = AUC (0 to t) in Sprague-Dawley rat at 10 mg/kg, iv administered as single dose by LC-MS/MS analysis; assay type: ADME, organism-based; conditions: in vivo
[14] = AUC (0 to infinity) in Sprague-Dawley rat at 10 mg/kg, iv administered as single dose by LC-MS/MS analysis; assay type: ADME, organism-based; set-up: dose 10 mg/kg, route intravenous, time infinity; conditions: in vivo
[15] = Apparent volume of distribution in Sprague-Dawley rat at 10 mg/kg, iv administered as single dose by LC-MS/MS analysis; assay type: ADME, organism-based; conditions: in vivo, read-out: Vz
[16] = Apparent clearance in Sprague-Dawley rat at 10 mg/kg, iv administered as single dose by LC-MS/MS analysis; assay type: ADME, organism-based; conditions: in vivo, read-out: CL(app) (converted)
[17] = MRT (0 to infinity) in Sprague-Dawley rat at 10 mg/kg, iv administered as single dose by LC-MS/MS analysis; assay type: ADME, organism-based; conditions: in vivo
[18] = Plasma concentration in Sprague-Dawley rat at 10 mg/kg, iv administered as single dose measured at 0.083 hrs post dosing by LC-MS/MS analysis; assay type: ADME, organism-based
[19] = Plasma concentration in Sprague-Dawley rat at 10 mg/kg, iv administered as single dose measured at 0.25 hrs post dosing by LC-MS/MS analysis; assay type: ADME, organism-based
[20] = Plasma concentration in Sprague-Dawley rat at 10 mg/kg, iv administered as single dose measured at 0.5 hrs post dosing by LC-MS/MS analysis; assay type: ADME, organism-based
[21] = Plasma concentration in Sprague-Dawley rat at 10 mg/kg, iv administered as single dose measured at 1 hr post dosing by LC-MS/MS analysis; assay type: ADME, organism-based
[22] = Plasma concentration in Sprague-Dawley rat at 10 mg/kg, iv administered as single dose measured at 2 hrs post dosing by LC-MS/MS analysis; assay type: ADME, organism-based
[23] = Plasma concentration in Sprague-Dawley rat at 10 mg/kg, iv administered as single dose measured at 4 hrs post dosing by LC-MS/MS analysis; assay type: ADME, organism-based
[24] = Plasma concentration in Sprague-Dawley rat at 10 mg/kg, iv administered as single dose measured at 8 hrs post dosing by LC-MS/MS analysis; assay type: ADME, organism-based
[25] = Plasma concentration in Sprague-Dawley rat at 10 mg/kg, iv administered as single dose measured at 24 hrs post dosing by LC-MS/MS analysis; assay type: ADME, organism-based

COc1ccc(-c2cc(-c3ccc(O[C@H]4O[C@@H]5O[C@@]6(C)CC[C@H]7[C@H](C)CC[C@@H]([C@H]4C)[C@@]57OO6)cc3)n[nH]2)cc1
GI50 [1]: 870 nM | GI50 [2]: 560 nM | GI50 [3]: 28 nM | RatioGI50 [4]: 20

C[C@H]1[C@H](Oc2ccc(-c3cc(-c4ccc(Cl)cc4)[nH]n3)cc2)O[C@@H]2O[C@@]3(C)CC[C@H]4[C@H](C)CC[C@@H]1[C@@]24OO3
GI50 [1]: 630 nM | GI50 [2]: 440 nM | GI50 [3]: 31 nM | RatioGI50 [4]: 14.2

CC(=O)N1N=C(c2ccc(O[C@@H]3O[C@@H]4O[C@@]5(C)CC[C@H]6[C@H](C)CC[C@@H]([C@H]3C)[C@@]46OO5)cc2)CC1c1ccc(Br)cc1 (some centres undefined)
GI50 [1]: 580 nM | GI50 [2]: 980 nM | GI50 [3]: 150 nM | RatioGI50 [4]: 6.5

CC(=O)N1N=C(c2ccc(O[C@@H]3O[C@@H]4O[C@@]5(C)CC[C@H]6[C@H](C)CC[C@@H]([C@H]3C)[C@@]46OO5)cc2)CC1c1ccc(Cl)cc1 (some centres undefined)
GI50 [1]: 400 nM | GI50 [2]: 500 nM | GI50 [3]: 35 nM | RatioGI50 [4]: 14.3

CC(=O)N1N=C(c2ccc(O[C@H]3O[C@@H]4O[C@@]5(C)CC[C@H]6[C@H](C)CC[C@@H]([C@H]3C)[C@@]46OO5)cc2)CC1c1ccccc1 (some centres undefined)
GI50 [5]: 25 nM | GI50 [6]: 40 nM | GI50 [7]: 73 nM | GI50 [8]: 29 nM | GI50 [9]: 110 nM | GI50 [10]: 93 nM | GI50 [1]: 420 nM | GI50 [2]: 130 nM | GI50 [3]: 61 nM | RatioGI50 [4]: 2.1 | half-life [11]: 3.87 h | Cmax [12]: 2430 ng/mL | AUC(0-t) [13]: 4140 ng·h/mL | AUC(0-inf) [14]: 4170 ng·h/mL | Vd [15]: 13.7 L/kg | clearance [16]: 41.3 mL/min/kg | MRT inf [17]: 3.07 h | concentration at 0.083 h [18]: 2430 ng/mL | concentration at 0.25 h [19]: 1900 ng/mL | concentration at 0.5 h [20]: 1260 ng/mL | concentration at 1 h [21]: 935 ng/mL | concentration at 2 h [22]: 523 ng/mL | concentration at 4 h [23]: 224 ng/mL | concentration at 8 h [24]: 63.9 ng/mL | concentration at 24 h [25]: 6.73 ng/mL

COc1ccc(C2CC(c3ccc(O[C@@H]4O[C@@H]5O[C@@]6(C)CC[C@H]7[C@H](C)CC[C@@H]([C@H]4C)[C@@]57OO6)cc3)=NN2C(C)=O)cc1 (some centres undefined)
GI50 [1]: 990 nM | GI50 [2]: 300 nM | GI50 [3]: 51 nM | RatioGI50 [4]: 5.9

CC(=O)N1N=C(c2ccc(O[C@H]3O[C@@H]4O[C@@]5(C)CC[C@H]6[C@H](C)CC[C@@H]([C@H]3C)[C@@]46O5)cc2)CC1c1ccccc1 (some centres undefined)
GI50 [2]: 11000 nM

C[C@H]1[C@@H](Oc2ccc(-c3cc(-c4ccc(Cl)cc4)[nH]n3)cc2)O[C@@H]2O[C@@]3(C)CC[C@H]4[C@H](C)CC[C@@H]1[C@@]24OO3
GI50 [1]: 920 nM | GI50 [2]: 190 nM | GI50 [3]: 55 nM | RatioGI50 [4]: 3.6

CC(=O)N1N=C(c2ccc(O)cc2)CC1c1ccccc1 (centres undefined)
GI50 [2]: 29100 nM | GI50 [3]: 38000 nM | RatioGI50 [4]: 0.77

CC(=O)N1N=C(c2ccc(O[C@H]3O[C@@H]4O[C@@]5(C)CC[C@H]6[C@H](C)CC[C@@H]([C@H]3C)[C@@]46OO5)cc2)CC1c1ccc(Br)cc1 (some centres undefined)
GI50 [1]: 370 nM | GI50 [2]: 300 nM | GI50 [3]: 26 nM | RatioGI50 [4]: 11.5

C[C@H]1[C@@H](O)O[C@@H]2O[C@@]3(C)CC[C@H]4[C@H](C)CC[C@@H]1[C@@]24OO3 [ARTENIMOL]
GI50 [5]: 191 nM | GI50 [6]: 910 nM | GI50 [7]: > 10000 nM | GI50 [8]: 151 nM | GI50 [9]: > 10000 nM | GI50 [10]: > 10000 nM | GI50 [1]: 12600 nM | RatioGI50 [4]: 10

C[C@H]1[C@H](Oc2ccc(-c3cc(-c4ccccc4)[nH]n3)cc2)O[C@@H]2O[C@@]3(C)CC[C@H]4[C@H](C)CC[C@@H]1[C@@]24OO3
GI50 [1]: 960 nM | GI50 [2]: 260 nM | GI50 [3]: 19 nM | RatioGI50 [4]: 13.7
